Reference: patent publication US8349827B2, “Substituted dipyrido-pyrimido-diazepine and benzo-pyrido-pyrimido compounds” (ArQule, Inc., priority 2009, dated 2013)

What was measured:
[1] = biological target: ABL T315I (Homo sapiens, UniProt P00519, T315I); assay: ABL Kinase Activity Assay (Elisa), ABL T315I; type: biochemical; conditions: ATP 100 μM, read-out: Abl(T315I) Enzymetic assay (Elisa) % inhibition
Experimental: (§1) ABL Kinase Activity Assay
(§2) The disclosed compounds were assayed for their ability to inhibit the activity of ABL kinase. Nunc Maxisorb plates were coated with streptavidin by overnight incubation with 100 μL per well of 1 μg/ml streptavidin in DPBS. Prior to the experiment, the plates were washed with TBST (3×200 μL) and blocked for at least 3 hours by adding 150 μL of 5% BSA/TBST. The plates were washed with TBST (3×200 μL/well) and left dry immediately before the capture step.
(§3) The disclosed test compounds and controls (Gleevec) were prepared using the following assay buffer@10× desired final concentration (50 mM Tris pH 7.0, 0.02 mg/ml BSA, 10 mM MgCl2, 0.1 mM Na3VO4, 1 mM EGTA, 0.01% NP-40, 1 mM DTT in 10% glycerol/water). In a reaction plate, 5 μl test article (or control) and 30 μl ABL or ABL T315I (0.089 nM final concentration, in the above buffer) were added rapidly. The plate was incubated for 20 minutes. To the reaction plate was added ATP (100 μM final concentration) and AblTide (128 nM final concentration) in a volume of 15 μl. The plate was incubated at room temperature for one hour.
(§4) From the reaction plate, 40 μl was transferred to the streptavidin coated plate. The capture plate was incubated at room temperature for 30 minutes, then washed 3× with TBST. To the capture plate was added 100 μL/well of cell signaling anti-phospho tyrosine at a dilution of 1:3000 in 2% BSA/TBST. The plate was incubated for two hours at room temperature then washed 3× with TBST. To the capture plate was added 100 μL/well of alkaline phosphatase tagged goat anti mouse antibody at a dilution of 1:4000 in 2% BSA/TBST. The plate was incubated for one hour at room temperature then washed 3× with TBST.
(§5) The fluorescent readout was initiated by the addition of 100 μl/well of Attophos reagent (6 mg/10 mL). The reading was done on the Perkin Elmer Envision system.

[2] = biological target: ABL (Homo sapiens, UniProt P00519); assay: ABL Kinase Activity Assay (Elisa), ABL; type: biochemical; conditions: ATP 100 μM, read-out: Abl Enzymetic assay (Elisa) % inhibition
Experimental: as §1, §2, §3, §4, §5

[3] = test system: NCI-H1299; assay: MTS assay, NCI-H1299 cells; type: cell-based; conditions: Homo sapiens, 72 hours
Experimental: (§6) Cells were maintained at 37° C., 5% CO2 in DMEM media supplemented with 1% fetal bovine serum, penicillin/streptomycin and fungizone (Invitrogen). Cells were seeded into 96-well tissue culture plates at 3000 per well and cultured at 37° C. for 18 hours. Test compounds were dissolved and diluted to 300× in DMSO then diluted 1:40 in DMEM. Cells were incubated with test compounds for 72 hours followed by incubation with tetrazolium compound (3-(4,5-dimethylthiazol-2-yl)-5-(3-carboxymethoxyphenyl)-2-(4-sulfophenyl)-2H-tetrazolium, inner salt; MTS) and the electron coupling reagent, phenazine methosulfate (PMS) for 4 hours. […] The ability of compounds to inhibit cell growth in this assay is correlated with the reduction of dehydrogenase enzyme activity found in metabolically active cells. The measurement of the absorbance of the formazan was assessed using an ENVISION™ (Perkin Elmer) microplate reader at 492 nm. The calculated IC50 value is the concentration of the test compound that causes a 50% decrease in the absorbance.

[4] = test system: KATO III; assay: MTS assay, KATO III cells; type: cell-based; conditions: Homo sapiens, 72 hours
Experimental: as §6

[5] = test system: DLD-1; assay: MTS assay, DLD-1 cells; type: cell-based; conditions: Homo sapiens, 72 hours
Experimental: as §6

[6] = test system: MDA-MB-231; assay: MTS assay, MDA-MB-231 cells; type: cell-based; conditions: Homo sapiens, 72 hours
Experimental: as §6

[7] = test system: PC-3; assay: MTS assay, PC-3 cells; type: cell-based; conditions: Homo sapiens, 72 hours
Experimental: as §6

[8] = test system: PACA-2; assay: MTS assay, PACA-2 cells; type: cell-based; conditions: 72 hours
Experimental: as §6

| inhibition at 10 µM [1] [%] | inhibition at 10 µM [2] [%] | SMILES | inhibition at 10 µM [3] [%] | inhibition at 10 µM [4] [%] | inhibition at 10 µM [5] [%] | inhibition at 10 µM [6] [%] | inhibition at 10 µM [7] [%] | inhibition at 10 µM [8] [%] |
| --- | --- | --- | --- | --- | --- | --- | --- | --- |
| 80 to 100 | 80 to 100 | CCCC(C)Nc1ncc2c(n1)-c1cccnc1Nc1cnccc1-2 (stereo not shown) [Example 5, N-(1-methylbutyl)-9H-dipyrido[2,3-b:4′,3′-f]pyrimido[4,5-d]azepin-2-amine] | < 50 | 50 to 79 | < 50 | < 50 | < 50 | < 50 |
| 80 to 100 | 80 to 100 | CCCCNc1ncc2c(n1)-c1cccnc1Nc1cnccc1-2 [Example 7, N-butyl-9H-dipyrido[2,3-b:4′,3′-f]pyrimido[4,5-d]azepin-2-amine] | < 50 | 50 to 79 | < 50 | 50 to 79 | < 50 | < 50 |
| 80 to 100 | 50 to 79 | Clc1ccccc1CNc1ncc2c(n1)-c1cccnc1Nc1cnccc1-2 [Example 8, N-(2-chlorobenzyl)-9H-dipyrido[2,3-b:4′,3′-f]pyrimido[4,5-d]azepin-2-amine] | 80 to 100 | 80 to 100 | 80 to 100 | 80 to 100 | 80 to 100 | 80 to 100 |
| 80 to 100 | 80 to 100 | Fc1ccc(CNc2ncc3c(n2)-c2cccnc2Nc2cnccc2-3)cc1 [Example 11, N-(4-fluorobenzyl)-9H-dipyrido[2,3-b:4′,3′-f]pyrimido[4,5-d]azepin-2-amine] | 80 to 100 | 80 to 100 | 80 to 100 | 80 to 100 | 80 to 100 | 80 to 100 |
| 80 to 100 | 50 to 79 | Clc1ccc(CNc2ncc3c(n2)-c2cccnc2Nc2cnccc2-3)cc1 [Example 13, N-(4-chlorobenzyl)-9H-dipyrido[2,3-b:4′,3′-f]pyrimido[4,5-d]azepin-2-amine] | 50 to 79 | 50 to 79 | 50 to 79 | < 50 | < 50 | < 50 |
| 80 to 100 | 80 to 100 | COc1ccc(CCNc2ncc3c(n2)-c2cccnc2Nc2cnccc2-3)cc1OC [Example 14, N-[2-(3,4-dimethoxyphenyl)ethyl]-9H-dipyrido[2,3-b:4′,3′-f]pyrimido[4,5-d]azepin-2-amine] | < 50 | < 50 | < 50 | < 50 | < 50 | < 50 |
| 80 to 100 | 80 to 100 | Cc1ccccc1CCNc1ncc2c(n1)-c1cccnc1Nc1cnccc1-2 [Example 15, N-[2-(2-methylphenyl)ethyl]-9H-dipyrido[2,3-b:4′,3′-f]pyrimido[4,5-d]azepin-2-amine] | < 50 | 50 to 79 | < 50 | < 50 | < 50 | < 50 |
| < 50 | < 50 | FC(F)(F)c1ccc(CNc2ncc3c(n2)-c2cccnc2Nc2cnccc2-3)cc1 [Example 21, N-[4-(trifluoromethyl)benzyl]-9H-dipyrido[2,3-b:4′,3′-f]pyrimido[4,5-d]azepin-2-amine] | 80 to 100 | 80 to 100 | 80 to 100 | 80 to 100 | 80 to 100 | 80 to 100 |
| < 50 | < 50 | COc1ccccc1CNc1ncc2c(n1)-c1cccnc1Nc1cnccc1-2 [Example 22, N-(2-methoxybenzyl)-9H-dipyrido[2,3-b:4′,3′-f]pyrimido[4,5-d]azepin-2-amine] | 50 to 79 | < 50 | 50 to 79 | 80 to 100 | 50 to 79 | < 50 |
| < 50 | 50 to 79 | CCCN1CCC(Nc2ncc3c(n2)-c2cccnc2Nc2cnccc2-3)CC1 [Example 23, N-(1-propylpiperidin-4-yl)-9H-dipyrido[2,3-b:4′,3′-f]pyrimido[4,5-d]azepin-2-amine] | 80 to 100 | 80 to 100 | 80 to 100 | 80 to 100 | 80 to 100 | 80 to 100 |
| 80 to 100 | 80 to 100 | COc1cccc(CCNc2ncc3c(n2)-c2cccnc2Nc2cnccc2-3)c1 [Example 24, N-[2-(3-methoxyphenyl)ethyl]-9H-dipyrido[2,3-b:4′,3′-f]pyrimido[4,5-d]azepin-2-amine] | < 50 | 50 to 79 | < 50 | < 50 | < 50 | < 50 |
| 80 to 100 | 50 to 79 | Fc1cccc(CCNc2ncc3c(n2)-c2cccnc2Nc2cnccc2-3)c1 [Example 25, N-[2-(3-fluorophenyl)ethyl]-9H-dipyrido[2,3-b:4′,3′-f]pyrimido[4,5-d]azepin-2-amine] | 80 to 100 | 80 to 100 | 80 to 100 | 80 to 100 | 80 to 100 | 80 to 100 |
| 80 to 100 | 80 to 100 | c1ccc(OCCNc2ncc3c(n2)-c2cccnc2Nc2cnccc2-3)cc1 [Example 26, N-(2-phenoxyethyl)-9H-dipyrido[2,3-b:4′,3′-f]pyrimido[4,5-d]azepin-2-amine] | < 50 | 50 to 79 | < 50 | < 50 | < 50 | < 50 |
| 80 to 100 | 80 to 100 | O[C@H]1CC[C@H](Nc2ncc3c(n2)-c2cccnc2Nc2cnccc2-3)CC1 [Example 27, trans-4-(9H-dipyrido[2,3-b:4′,3′-f]pyrimido[4,5-d]azepin-2-ylamino)cyclohexanol] | < 50 | 80 to 100 | < 50 | 50 to 79 | 50 to 79 | < 50 |
| 80 to 100 | 80 to 100 | Fc1ccc(CNc2ncc3c(n2)-c2cccnc2Nc2cnccc2-3)cc1F [Example 33, N-(3,4-difluorobenzyl)-9H-dipyrido[2,3-b:4′,3′-f]pyrimido[4,5-d]azepin-2-amine] | 80 to 100 | 80 to 100 | 80 to 100 | 80 to 100 | 80 to 100 | 80 to 100 |
| 80 to 100 | 80 to 100 | c1ccc(-c2ccc(CNc3ncc4c(n3)-c3cccnc3Nc3cnccc3-4)cc2)cc1 [Example 34, N-(biphenyl-4-ylmethyl)-9H-dipyrido[2,3-b:4′,3′-f]pyrimido[4,5-d]azepin-2-amine] | 80 to 100 | 80 to 100 | 80 to 100 | 80 to 100 | 80 to 100 | 80 to 100 |
| 80 to 100 | 80 to 100 | c1cnc2c(c1)-c1nc(NC3CCCCC3)ncc1-c1ccncc1N2 [Example 35, N-cyclohexyl-9H-dipyrido[2,3-b:4′,3′-f]pyrimido[4,5-d]azepin-2-amine] | 50 to 79 | 50 to 79 | < 50 | < 50 | < 50 | < 50 |
